Reference: patent publication US7235588B2, “Method for reducing hypertension and heart failure” (The Research Foundation of State University of New York, priority 2001, dated 2007)
“Also recorded” adds a separate entry of the source. Like-named read-outs stand apart in the source and are kept apart here.

Tests used:
[1] = test system: spontaneously hypertensive rats; assay: Blood pressure in spontaneously hypertensive rats; format: in vivo, rat; conditions: 5 micromoles, FIG. 9
Description: Adult spontaneously hypertensive rats, which are genetically predisposed to hypertension, and normotensive rats were anesthetized with pentobarbital sodium (65 mg/kg ip) in preparation for surgery. […] Teflon arterial catheter (ID […]) was inserted into the left femoral artery. The catheter was tunneled under the skin and exited at the nape of the rat's neck and connected to a 26 G needle capped on a port and flushed with 1:3 heparin saline. The rats were housed individually after surgery, and allowed 48 hours to recover from the operation. Systolic and diastolic blood pressure were directly measured using the connection to the port placed in the rat's neck to a manual transducer.

rat hearts = assay: Myocardial infarct size (triphenyl tetrazolium staining) after ischemia/reperfusion; conditions: FIG. 4B
Description: To gain insight into the physiological basis for cardioprotection afforded by tyrphostin AG490, the extent of cardiomyocyte infarct size and apoptosis were measured. On termination of treatment with tyrphostin AG490, hearts were immersed in 1% triphenyl tetrazolium solution in phosphate buffer (Na2HPO4 88 mmol/l, NaH2PO4 1.8 mmol/l) for 10 min. at 37° C. and stored at −70° C. for processing. Frozen hearts (ventricular tissue) were sliced transversely in a plane perpendicular to the apicobasal axis into 0.5 mm thick sections, blotted dry, placed between microscope slides, and scanned on a Hewlett-Packard Scanjet 5 p single-pass flatbed scanner. With the NIH 1.61 image processing software, each digitized image was subjected to equivalent degrees of background subtraction, brightness, and contrast enhancement for improved clarity and distinctness. Risk (equivalent to total left ventricular muscle mass) and infarct zones of each slice were traced, and the respective areas were calculated in terms of pixels. The weight of each slice was then recorded to facilitate the expression of total and infarct masses of each slice in grams. The risk and infarct volumes of each slice in cubic centimeters were then calculated on the basis of slice weight to correct for any errors due to nonuniformity of heart slice thickness. […]

Jak2 [2] = biological target: Jak2 (Homo sapiens, UniProt O60674); conditions: cited from earlier work
Jak2 [3] = biological target: T1, Jak2 (Rattus norvegicus, UniProt Q62689); assay: Phosphotyrosine assay of Jak2 in hearts subjected to ischemia/reperfusion; conditions: ischemic heart, FIG. 6A
T1 construct: nuclear extracts from hearts subjected to ischemia/reperfusion in presence of absence of tyrphostin AG490 were immunoprecipitated; from tissue; host or cells: rat heart (nuclear extracts)
Description: Rats were pretreated with 5 or 50 μmol/L of tyrphostin AG490 24 h prior to ischemia/reperfusion followed by chronic administration of tyrphostin AG490 during the process of ischemia/reperfusion. A phosphotyrosine assay was performed. Briefly, nuclear extracts from hearts subjected to ischemia/reperfusion in presence of absence of tyrphostin AG490 were immunoprecipitated with anti-phosphotyrosine antibodies (4G10). Fifty microliters of 50% protein A-agarose, prewashed in lysis buffer (Upstate Biotechnology) was then added and the mixture was incubated for 2 hr at 4° C. Each sample was washed with washing buffer containing 150 mM NaCl, 50 mM Tris-HCL (pH 7.4), 5 mM EDTA, 0.25% Triton X-100, 2 mM phenylmethylsulfonyl fluoride, aprotinin (0.2 unit/ml), 1 mM Na3VO4, and 1 mM NaF. Samples were eluted in 2× Laernmli's sample buffer. Proteins were separated on a 7.5% SDS/polyacrylamide gel and transferred to nitrocellulose membrane, Nitropure (Micron Separations, Westboro, Mass.). Blots were probed with polyclonal antibody against Jak2 and developed according to the chemiluminescence protocol. Administration of tyrphostin AG490 in perfusion medium was inhibitory at both 5 and 50 μmol/L for pliosphorylation of Jak2, which was activated readily in the ischemic heart in absence of the inhibitor (FIG. 6A).

[4] = test system: St-domain/STAT binding activity; assay: Electrophoretic gel mobility-shift assay of St-domain/STAT binding in heart nuclear extracts; set-up: species or system rat; conditions: hearts, 30 min ischemia/120 min reperfusion
Text: Nuclear extracts were examined in hearts subjected to global ischemia to determine whether there is enhanced STAT binding activity to the St domain of the angiotensinogen promoter. The nuclear heart extracts were examined by the electrophoretic gel mobility-shift assay that exployed the use of the chemically synthesized oligonucleotide sequence of the St domain. The St-domain DNA probe for protein binding was a double-stranded oligonucleotide containing the sequence 5′-GGGTtcCTGGAAGGG-3′ SEQ. ID NO: 2, and complementary strand 5′-CCCTTCCAGgaACCC-3′ SEQ. ID NO: 3, respectively. These probes were end-labeled by polynucleotide kinase and [γ-^32P]ATP. Binding reaction mixture containing 0.5 ng of labeled DNA (1,000 cpm), 2 μg of poly(dI-C), and 1-12 μg of protein in buffer containing 20 mM Hepes, 3% glycerol, 1.5 mM MgCl2, 1 mM DTT, 2 mM EDTA and 50 mM KCl, pH 7.5 was allowed to incubate at 4° C. for 30 min. The reactions were analyzed by electrophoresis on 8% polyacrylanide gel in 0.375× TBE ([…] Tris borate, pH 8.7 and 1.0 mM EDTA). After electrophoresis, the gels were dried and subjected to autoradiography. […] (FIG. 5B). The activation of STATs and the consequent binding to the St-domain in the angiotensinogen promoter accounts for the increase in transcription of angiotensinogen mRNA. […]

T1 sequence (Q62689 whole entry, the tested form may be a part): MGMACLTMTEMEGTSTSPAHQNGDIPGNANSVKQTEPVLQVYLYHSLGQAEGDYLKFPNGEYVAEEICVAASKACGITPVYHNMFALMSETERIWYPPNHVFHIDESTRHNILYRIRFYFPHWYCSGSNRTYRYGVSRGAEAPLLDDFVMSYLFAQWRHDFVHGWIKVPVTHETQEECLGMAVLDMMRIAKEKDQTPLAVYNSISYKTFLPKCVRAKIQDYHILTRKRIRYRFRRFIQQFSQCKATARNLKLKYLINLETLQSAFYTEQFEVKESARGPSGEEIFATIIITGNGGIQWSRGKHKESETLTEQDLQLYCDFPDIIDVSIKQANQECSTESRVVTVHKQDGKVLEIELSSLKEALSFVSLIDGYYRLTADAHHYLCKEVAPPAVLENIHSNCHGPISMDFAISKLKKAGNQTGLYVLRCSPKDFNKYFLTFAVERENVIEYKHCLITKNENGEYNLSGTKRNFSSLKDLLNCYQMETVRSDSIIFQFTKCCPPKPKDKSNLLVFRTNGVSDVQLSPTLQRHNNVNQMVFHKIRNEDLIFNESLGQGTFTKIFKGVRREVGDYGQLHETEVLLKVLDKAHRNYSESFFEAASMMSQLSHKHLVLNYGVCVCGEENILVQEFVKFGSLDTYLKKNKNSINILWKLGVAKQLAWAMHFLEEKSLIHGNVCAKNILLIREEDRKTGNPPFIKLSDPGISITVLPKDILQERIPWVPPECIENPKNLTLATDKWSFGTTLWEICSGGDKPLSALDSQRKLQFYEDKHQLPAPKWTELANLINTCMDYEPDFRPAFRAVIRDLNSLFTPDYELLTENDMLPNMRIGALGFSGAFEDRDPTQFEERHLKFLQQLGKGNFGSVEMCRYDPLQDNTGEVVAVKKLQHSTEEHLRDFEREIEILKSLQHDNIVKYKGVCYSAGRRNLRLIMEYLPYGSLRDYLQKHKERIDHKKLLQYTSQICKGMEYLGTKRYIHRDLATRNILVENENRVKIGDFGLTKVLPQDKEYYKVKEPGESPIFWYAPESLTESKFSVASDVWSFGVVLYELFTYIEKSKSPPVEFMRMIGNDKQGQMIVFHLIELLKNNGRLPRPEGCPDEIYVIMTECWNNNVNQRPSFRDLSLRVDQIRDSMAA
Chain of Jak2 (Homo sapiens, UniProt O60674) (O60674 whole entry, species assumed, the tested form may be a part): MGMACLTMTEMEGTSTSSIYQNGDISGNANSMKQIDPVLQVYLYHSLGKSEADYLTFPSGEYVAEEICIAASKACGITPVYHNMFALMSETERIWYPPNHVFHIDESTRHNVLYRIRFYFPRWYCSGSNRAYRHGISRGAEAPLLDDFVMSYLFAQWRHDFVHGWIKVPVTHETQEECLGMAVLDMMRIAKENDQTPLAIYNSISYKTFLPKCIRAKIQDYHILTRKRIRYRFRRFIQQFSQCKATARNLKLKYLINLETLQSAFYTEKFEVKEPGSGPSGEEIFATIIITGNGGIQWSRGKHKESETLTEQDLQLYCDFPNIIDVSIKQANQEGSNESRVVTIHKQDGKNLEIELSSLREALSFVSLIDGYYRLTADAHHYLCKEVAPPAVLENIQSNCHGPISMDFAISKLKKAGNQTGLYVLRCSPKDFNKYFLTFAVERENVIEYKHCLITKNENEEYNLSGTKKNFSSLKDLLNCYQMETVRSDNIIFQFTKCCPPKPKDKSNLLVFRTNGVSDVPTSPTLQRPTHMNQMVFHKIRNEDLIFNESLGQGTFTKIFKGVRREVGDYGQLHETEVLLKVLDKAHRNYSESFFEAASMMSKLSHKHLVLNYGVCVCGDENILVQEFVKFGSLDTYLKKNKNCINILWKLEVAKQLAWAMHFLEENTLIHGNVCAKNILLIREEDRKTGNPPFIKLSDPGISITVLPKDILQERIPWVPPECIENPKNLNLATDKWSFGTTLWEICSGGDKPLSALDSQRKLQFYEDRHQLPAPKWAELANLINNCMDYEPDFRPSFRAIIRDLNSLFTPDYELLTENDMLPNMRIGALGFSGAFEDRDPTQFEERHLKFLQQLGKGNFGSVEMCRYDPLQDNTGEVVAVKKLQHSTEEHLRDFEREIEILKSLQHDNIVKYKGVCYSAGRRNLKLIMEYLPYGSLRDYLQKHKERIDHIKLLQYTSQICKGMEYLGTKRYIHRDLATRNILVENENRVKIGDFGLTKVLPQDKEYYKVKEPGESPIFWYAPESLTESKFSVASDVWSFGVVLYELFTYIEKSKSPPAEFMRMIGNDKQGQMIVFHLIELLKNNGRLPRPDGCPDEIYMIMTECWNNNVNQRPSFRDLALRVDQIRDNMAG

phosphorylation of Jak2 (Jak2 [3]; 5 μmol/L in perfusion medium): inhibitory
phosphorylation of Jak2 (Jak2 [3]; 50 μmol/L in perfusion medium): inhibitory
SMILES: N#C/C(=C\c1ccc(O)c(O)c1)C(=O)NCc1ccccc1 [tyrphostin AG490]
blood pressure [1]: effective in lowering blood pressure to normal levels; also recorded: attenuation of hypertension
myocardial infarct size (rat hearts): reduced myocardial infarct size; also recorded: reduction of infarct size
Jak2 inhibition, selectivity (Jak2 [2]; listed as AG490): selectively inhibits Jak2
Jak2 inhibition, selectivity (Jak2 [2]; listed as Tyrphostin AG490): selective, specific, and potent
St-domain/STAT binding activity (STAT/DNA complex formation) [4]: total loss of STAT/DNA complex formation; also recorded: reduction of St-domain/STAT binding activity
